Laboratory results published in paper PMC8268581, “Identification of 3,4-Dihydro-2H,6H-pyrimido[1,2-c][1,3]benzothiazin-6-imine Derivatives as Novel Selective Inhibitors of Plasmodium falciparum Dihydroorotate Dehydrogenase” (International Journal of Molecular Sciences, 2021).
Read-outs that look alike come from different tables or passages of the source.

Tests used:
PfDHODH = biological target: T1, PfDHODH (Plasmodium falciparum, UniProt Q08210); assay: PfDHODH inhibition assay (DCIP end-point, 384-well); type: biochemical
T1 construct: encoding amino acid residues 158 to 569 fused to a His6-SUMO tag in its N-terminus; His6-SUMO (N, cleaved yes); made in house; host or cells: E. coli BL21 Star (DE3), pETSUMO/PfDHODH
Procedure: The screening of 40,400 compounds was conducted in 384-well plates by adapting the end-point assay reported before. First, 1 µL of 200 µM compound was transferred into 384-well plates using a Benchtop Multi-Pipetter EDR-384SR (Biotech Co., Ltd., Tokyo, Japan). […] Next, 38 µL of assay mix (100 mM HEPES-NaOH pH 7.5, 5% (v/v) glycerol, 150 mM NaCl, 0.05% (v/v) Triton X-100, 15 µM decylubiquinone (dUQ, Sigma), 120 µM 2,6-dichlorophenolindophenol (DCIP, Sigma), and 20 nM PfDHODH) were dispensed into all wells and mixed at 600 rpm for 1 min by a MixMate®® (Eppendorf). The reaction was started by the addition of 5 µL of 1.8 mM L-DHO (Sigma) as the substrate and mixed as described above for 20 s. The absorbance at 600 nm was recorded using a SpectraMax®® Paradigm®® Multi-Mode Microplate Reader (Molecular Devices) before (t0) and after 20 min (t20) incubation at room temperature. The readings at t0 were subtracted from t20, and PfDHODH inhibition was calculated as the inhibition relative to the negative and positive controls in a single-point assay. Hits were defined as compounds inhibiting more than 50% of PfDHODH activity at 4.5 µM. The quality of the screening system was evaluated by calculating statistical parameters: Z′-factor, S/N, S/B, SW, and CV, as previously reported. The IC50 values of the hit compounds were determined using the same assay system containing serial dilutions of each compound in triplicates (22.7, 6.8, 2.27, 0.68, 0.227, 0.068, 0.023, 0.007, 0.002, 0.0007 µM) using GraphPad Prism 8.0 software (GraphPad Software Inc., San Diego, CA, USA).

[1] = biological target: mammalian mitochondrial complexes II–III (Bos taurus, UniProt P00157+P35720+Q3T189+Q95123); assay: succinate-cytochrome c reductase (complexes II–III) activity assay; type: biochemical; conditions: bovine heart mitochondria, range tested 0.0007 to 22.7 µM; read-out: IC50 Mammalian Mitochondrial CII–III
Procedure: Bovine heart mitochondria were prepared as previously described. The NADH-cytochrome c reductase (complexes I–III) and succinate-cytochrome c reductase (complexes II–III) activities were assayed in 384-well plates following an established protocol with small modifications. Complex I–III activity was assayed in a reaction mix containing 50 mM phosphate buffer pH 7.4, 2 mM KCN, 200 µM cytochrome c (cytochrome c from horse heart, Nacalai tesque), and 15 µg/mL mitochondria. Plates containing 1 µL serial dilutions of PfDHODH inhibitors were prepared and mixed with 38 µL of the reaction mix, as described above. The reaction was started by the addition of 5 µL of 2.6 mM NADH, and the assay was performed as described for PfDHODH, but at 550 nm and with 15 min of incubation. Complex II–III activity was assayed similarly to complex I–III activity but with 100 µM cytochrome c and 25 µg/mL mitochondria, and the reaction was started by 10 mM succinate. For both assays, DMSO and 5 µM ascochlorin were used as negative and positive controls, respectively. Assays were performed in triplicate.

HsDHODH = biological target: T2, HsDHODH (Homo sapiens, UniProt Q02127); assay: HsDHODH counter-assay; type: biochemical; conditions: purified recombinant HsDHODH, tested at 4.5 µM; read-out: IC50 DHODH Hs
T2 construct: made in house
Procedure: Selected hit compounds from PfDHODH screening were tested for potential inhibition against HsDHODH at 4.5 µM. The HsDHODH used in this study was purified as previously reported. The HsDHODH assay was performed similarly to that for PfDHODH, but in an assay mix consisting of 50 mM Tris-HCl pH 8.0, 0.1% (v/v) Triton X-100, 2 mM potassium cyanide (KCN, Wako), 60 µM dUQ, and 120 µM DCIP, with the reaction started by the addition of 200 µM L-DHO (final concentration) in triplicate. For this assay, DMSO was used as a negative control and 10 µM of lapachol was used as a positive control (100% inhibition). The relative inhibition was calculated as described above.

[2] = Cytotoxicity assay, DLD-1 (Cell Counting Kit-8); type: cell-based; conditions: DLD-1 human colorectal adenocarcinoma cells
Procedure: Human dermal fibroblast cells (HDF, Zenbio, Inc., Durham, NC, USA) were cultured in Dulbecco’s Modified Eagle Medium/Nutrient Mixture F-12 medium (DMEM/F12, Gibco), human pancreatic carcinoma cells (PANC-1, DS Pharma Biomedical, Co., Ltd.) were cultured in DMEM (Gibco), and human colorectal adenocarcinoma cells (DLD-1, Taiho Pharmaceutical Company) were cultured in RPMI-1640 medium (FUJIFILM Wako Pure Chemicals). The culture mediums were supplemented with 10% (v/v) heat-inactivated fetal bovine serum (Gibco) and the cells were maintained at 37 °C under 5% CO2.
HDF, PANC-1, and DLD-1 were seeded at 2.5 × 10^4 cells/well on a 96-well plate and incubated at 37 °C under 5% CO2 overnight. The cells were then washed with PBS and the medium was replaced with 99 µL of fresh media. Then, 1 µL of the compounds or DMSO was added to the respective wells. As controls, wells containing 1% (v/v) DMSO in column 1 and wells containing only the culture medium in column 12 were used as the negative and positive controls, respectively. After 48 h of incubation, the cells were washed with PBS, and 99 µL of fresh media was replaced, followed by the addition of 10 µL of Cell Counting Kit-8 (Dojindo) to each well. After 3 h of incubation, the absorbance was measured at 450 nm using a SpectraMax®® Paradigm®® Multi-Mode microplate Reader. The calculation of cell viability in the test well was based on the absorbance of control wells according to the manufacturer’s protocol. The mean of quadruplet values was used to calculate the CC50 using GraphPad Prism 8.0 software.

[3] = recombinant tag-free PfDHODH, 20 min, serial dilutions 0.0007-22.7 µM, read-out: IC50 DHODH Pf

T1 sequence (Q08210 158-569): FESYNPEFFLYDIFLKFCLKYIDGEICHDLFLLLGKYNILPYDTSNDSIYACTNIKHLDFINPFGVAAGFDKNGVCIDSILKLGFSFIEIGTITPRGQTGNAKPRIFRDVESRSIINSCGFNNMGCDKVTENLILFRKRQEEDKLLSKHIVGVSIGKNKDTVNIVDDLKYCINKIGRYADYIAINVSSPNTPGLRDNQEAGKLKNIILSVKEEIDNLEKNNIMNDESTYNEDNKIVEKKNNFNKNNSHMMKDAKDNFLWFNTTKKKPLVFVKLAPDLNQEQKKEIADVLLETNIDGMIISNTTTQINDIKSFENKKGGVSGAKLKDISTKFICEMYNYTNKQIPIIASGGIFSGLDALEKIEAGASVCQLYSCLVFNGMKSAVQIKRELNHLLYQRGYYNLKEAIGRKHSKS
T2 sequence (Q02127 whole entry): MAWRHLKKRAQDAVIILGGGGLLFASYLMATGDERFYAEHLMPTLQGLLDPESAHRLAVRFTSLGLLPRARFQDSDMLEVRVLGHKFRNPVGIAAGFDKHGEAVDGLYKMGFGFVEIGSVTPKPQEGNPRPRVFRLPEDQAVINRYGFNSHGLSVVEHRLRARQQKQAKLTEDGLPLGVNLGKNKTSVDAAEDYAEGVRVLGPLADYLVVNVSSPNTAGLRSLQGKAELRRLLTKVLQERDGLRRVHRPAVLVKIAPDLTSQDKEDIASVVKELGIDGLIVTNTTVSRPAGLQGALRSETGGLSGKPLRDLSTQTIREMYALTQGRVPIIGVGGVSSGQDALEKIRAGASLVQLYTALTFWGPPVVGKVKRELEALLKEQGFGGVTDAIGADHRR

Row | SMILES | IC50 (PfDHODH; [3]) | IC50 [1] | IC50 (HsDHODH) | EC50 at 48 h [2] | IC50 (PfDHODH) | fold increase in the PfDHODH IC50 compared to 1 (PfDHODH)
1 | N=C1Sc2cc(-c3ccc4ccccc4c3)ccc2C2=NCCCN12 [Compound 1] | 0.65 ± 0.05 µM | > 22.7 µM | > 4.5 µM | > 10 µM |  | 
2 | N=C1Sc2cc(-c3ccc4c(c3)OCO4)ccc2C2=NCCCN12 [Compound 3] | 1.18 ± 0.04 µM | > 22.7 µM | > 4.5 µM | > 10 µM |  | 
3 | N=C1Sc2cc(-c3ccc4c(c3)OCCO4)ccc2C2=NCCCN12 [Compound 4] | 0.97 ± 0.08 µM | > 22.7 µM | > 4.5 µM | > 10 µM |  | 
4 | N=C1Sc2cc(-c3ccc4cnccc4c3)ccc2C2=NCCCN12 [Compound 5] | 0.96 ± 0.09 µM | > 22.7 µM | > 4.5 µM | > 10 µM |  | 
5 | N=C1Sc2cc(-c3ccc4c(C(=O)OC(F)(F)F)c[nH]c4c3)ccc2C2=NCCCN12 [Compound 6] | 0.7 ± 0.04 µM | > 22.7 µM | > 4.5 µM | > 10 µM |  | 
6 | N=C1Sc2cc(-c3cc4ccccc4o3)ccc2C2=NCCCN12 [Compound 7] | 1.3 ± 0.05 µM | > 22.7 µM | > 4.5 µM | > 10 µM |  | 
7 | N=C1Sc2cc(/C=C/c3ccccc3)ccc2C2=NCCCN12 [Compound 8] |  | > 22.7 µM | > 4.5 µM | > 10 µM | 1.07 ± 0.05 µM | 
8 | CC(C)(C)N=C1Sc2cc(-c3cc4ccccc4s3)ccc2C2=NCCCN12 [Compound 10] | 3.84 ± 0.09 µM | > 22.7 µM | > 4.5 µM | > 10 µM |  | 6 fold
9 | N=C1Sc2cc(-c3ccccc3)ccc2C2=NCCCN12 [Compound 12] | 0.68 ± 0.05 µM | > 22.7 µM | > 4.5 µM | > 10 µM |  | 
10 | COC(=O)c1ccc(-c2ccc3c(c2)SC(=N)N2CCCN=C32)cc1 [Compound 13] | 1.22 ± 0.05 µM | > 22.7 µM | > 4.5 µM | > 10 µM |  | 
11 | N#Cc1ccc(-c2ccc3c(c2)SC(=N)N2CCCN=C32)cc1 [Compound 14] | 3.89 ± 0.23 µM | > 22.7 µM | > 4.5 µM | > 10 µM |  | 
12 | N=C1Sc2cc(-c3ccc(C(F)(F)F)cc3)ccc2C2=NCCCN12 [Compound 15] | 2.31 ± 0.11 µM | > 22.7 µM | > 4.5 µM | > 10 µM |  | 
13 | CSc1ccc(-c2ccc3c(c2)SC(=N)N2CCCN=C32)cc1 [Compound 17] | 0.96 ± 0.07 µM | > 22.7 µM | > 4.5 µM | > 10 µM |  | 
14 | N=C1Sc2cc(-c3ccc(OC(F)(F)F)cc3)ccc2C2=NCCCN12 [Compound 18] | 1.43 ± 0.06 µM | > 22.7 µM | > 4.5 µM | > 10 µM |  | 
15 | N=C1Sc2cc(-c3ccc(C(=O)c4ccccc4)cc3)ccc2C2=NCCCN12 [Compound 19] | 1.07 ± 0.05 µM | > 22.7 µM | > 4.5 µM | > 10 µM |  | 
16 | C#CCOCc1ccc(C(=O)c2ccc(-c3ccc4c(c3)SC(=N)N3CCCN=C43)cc2)cc1 [Compound 20] | 1.21 ± 0.06 µM | > 22.7 µM | > 4.5 µM | > 10 µM |  | 
17 | N=C1Sc2cc(-c3cccc([N+](=O)[O-])c3)ccc2C2=NCCCN12 [Compound 21] | 3.68 ± 0.31 µM | > 22.7 µM | > 4.5 µM | > 10 µM |  | 
18 | CC(C)Oc1cccc(-c2ccc3c(c2)SC(=N)N2CCCN=C32)c1 [Compound 22] | 1.56 ± 0.05 µM | > 22.7 µM | > 4.5 µM | > 10 µM |  | 
19 | CCc1cccc(-c2ccc3c(c2)SC(=N)N2CCCN=C32)c1 [Compound 25] | 1.52 ± 0.08 µM | > 22.7 µM | > 4.5 µM | > 10 µM |  | 
20 | N=C1Sc2cc(-c3ccccc3-c3ccccc3)ccc2C2=NCCCN12 [Compound 27] | 3.3 ± 0.1 µM | > 22.7 µM | > 4.5 µM | > 10 µM |  | 
21 | c1ccc(-c2ccc3c(c2)SN2CCCN=C32)cc1 [Compound 30] | 4.26 ± 0.12 µM | > 22.7 µM | > 4.5 µM | > 10 µM |  | 
22 | c1ccc2c(-c3ccc4c(c3)SN3CCCN=C43)cccc2c1 [Compound 31] | 1.1 ± 0.08 µM | > 22.7 µM | > 4.5 µM | > 10 µM |  | 
23 | c1cc2c(cc1-c1ccc3c(c1)SN1CCCN=C31)OCO2 [Compound 32] | 1.29 ± 0.09 µM | > 22.7 µM | > 4.5 µM | > 10 µM |  | 
24 | c1ccc(-c2ccc3c(c2)C2=NCCCN2S3)cc1 [Compound 36] | 1.51 ± 0.04 µM | > 22.7 µM | > 4.5 µM | > 10 µM |  | 
25 | COC(=O)c1ccc(-c2ccc3c(c2)SN2CCCN=C32)cc1 [Compound 37] | 1.15 ± 0.07 µM | > 22.7 µM | > 4.5 µM | > 10 µM |  | 
26 | O=[N+]([O-])c1ccc(-c2ccc3c(c2)SN2CCCN=C32)cc1 [Compound 39] | 1.3 ± 0.04 µM | > 22.7 µM | > 4.5 µM | > 10 µM |  | 
27 | COC(=O)c1cccc(-c2ccc3c(c2)SN2CCCN=C32)c1 [Compound 40] | 1.43 ± 0.02 µM | > 22.7 µM | > 4.5 µM | > 10 µM |  | 
28 | COc1ccccc1-c1ccc2c(c1)SN1CCCN=C21 [Compound 42] | 1.18 ± 0.05 µM | > 22.7 µM | > 4.5 µM | > 10 µM |  | 
29 | O=[N+]([O-])c1ccccc1-c1ccc2c(c1)SN1CCCN=C21 [Compound 43] | 1.15 ± 0.06 µM | > 22.7 µM | > 4.5 µM | > 10 µM |  | 
